# “Also recorded” adds a separate entry of the source. Read-outs that look alike come from different tables or passages of the source.
# What was measured:
# mushroom tyrosinase = test: Spectrophotometric (UV-Vis) detection of tyrosinase inhibitory activity; type: biochemical; conditions: for tyrosinase inhibition in words, tyrosine versus dopamine as substrate: UV-Vis, absorbance at 311 or 472 nm, Figure 3
# Procedure: Kinetic assays were carried out by measuring the appearance of the product of either tyrosine or dopamine oxidation in the reaction medium at 311 and 472 nm, respectively, in a Shimadzu UV-2501 spectrophotometer (Shimadzu, Kyoto, Japan) equipped with the UV-Probe software, using a tandem quartz cuvette (Hellma, Milan, Italy) with a 2 × 4.375-mm path length [1, 2, 51]. Briefly, one side of the dual chamber cuvette was filled with 1000 µl of mushroom tyrosinase solution in 50 mM phosphate buffer, pH 6.8, 166 Units/mL using tyrosine as substrate or a 16.6 Units/mL when dopamine was used as substrate. The other chamber was loaded with 980 µL of substrate solution (180 µM tyrosine or 18 µM dopamine) in 20 mM phosphate buffer (pH 6.8) added of either 20 µL of DMSO (control) or 20 µL of a 2 mM (0.2 mM in dopamine experiments) solution of tested inhibitors in DMSO. A background spectrum in the 250–700 nm range was acquired with a 2.0 nm slit and fast speed before starting the reaction. Thereafter, the solutions in the two chambers were mixed by inversion and the UV-Vis spectra were acquired at increasing time intervals. Spectra were recorded at 311 or 472 nm in the presence of the inhibitor before mixing, and after either 24 or 10 min, using tyrosine or dopamine as a substrate, respectively. Data processing was performed with UV Probe and OriginPro 2019 (v. 9.60) softwares.
# The mushroom tyrosinase was used as purchased without further purification. All solutions (tyrosinase, substrates and inhibitors) were filtered through a 0.45-μm syringe filter, aliquoted in Eppendorf tubes, and stored in freezer. The relative concentration was determined spectrophotometrically (εtyrosine 274.6 nm = 1420 M^−1·cm^−1; εdopamine at 280 nm = 2670 M^−1·cm^−1; εtyrosinase at 280 nm = 1426 M^−1·cm^−1).
# Tyrosine was dissolved in 50 mM phosphate buffer, pH 6.8, final concentration 80 µM and with the added inhibitor (final concentration 20 µM) and tyrosinase (83 U/mL). The absorbance values were determined after 24 min of incubation. In the presence of dopamine, experiments were performed using 10-fold diluted solutions, and the absorbance values were determined after 10 min of incubation.
# tyrosinase [1] = target: T1, tyrosinase (Agaricus bisporus, UniProt C7FF04); test: Tyrosinase amperometric biosensor: IC50 and type of inhibition; type: biochemical; conditions: for Type of Inhibition Tyrosinase: Lineweaver-Burk plot, biosensor exposed 30 min to twice the lowest inhibiting concentration; for VMAX, substrate + inhibitor, TYR: dopamine calibration 0-140 mM after inhibitor exposure, n=4 biosensors;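 as to all read-outs here: Carbon-composite amperometric tyrosinase biosensors with polyurethane-entrapped enzyme, calibrated in a three-electrode cell against Ag/AgCl at room temperature, before versus after inhibitor exposure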
# T1 sequence (C7FF04 2-392): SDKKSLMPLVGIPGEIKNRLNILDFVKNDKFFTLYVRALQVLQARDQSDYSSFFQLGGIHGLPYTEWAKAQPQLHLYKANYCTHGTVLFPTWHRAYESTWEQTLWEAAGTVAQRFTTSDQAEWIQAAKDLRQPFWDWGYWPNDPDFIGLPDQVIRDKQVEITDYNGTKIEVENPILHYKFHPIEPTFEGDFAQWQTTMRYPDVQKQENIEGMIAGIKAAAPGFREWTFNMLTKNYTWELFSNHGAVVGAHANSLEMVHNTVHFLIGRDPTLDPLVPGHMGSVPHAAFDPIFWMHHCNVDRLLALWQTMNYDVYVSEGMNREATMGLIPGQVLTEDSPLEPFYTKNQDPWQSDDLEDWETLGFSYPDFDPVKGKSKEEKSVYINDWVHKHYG
# Procedure: (§1) Inhibition types and IC50 were assessed by means of carbon-based amperometric biosensors [61, 62, 63, 64, 65], that are described in the Supplementary Materials. During the experiments carried out to determine the IC50 values, the lowest inhibitory concentration of each compound was also evaluated.
# (§2) To verify the inhibition types, the following protocol was used. An initial calibration with dopamine, ranging between 0 and 140 mM, was performed in order to ascertain the values of VMAX and KM. Another calibration with the same protocol was performed after having exposed the biosensors to twice the lowest inhibiting concentration of each inhibitor, in order to ensure the safe inhibition of enzymatic activity. The biosensors were exposed to the inhibitor for 30 min and after having reached a stabile baseline, a calibration with dopamine, ranging between 0 and 140 mM, was performed and the value of VMAX and KM were calculated. The variations of both VMAX and KM were then analyzed by using the Lineweaver-Burk plot in order to identify the type of inhibition induced by the tested compound. The statistical difference in VMAX and KM, before exposing the biosensors to the inhibitor and then afterwards, was calculated by means of a paired t-test (p < 0.05).
# (§3) The biosensors were prepared starting from a Teflon™-insulated silver wire (30 mm in length; Ø = 125 μm),
# (§4) Briefly, 1 mm of the silver wire was exposed and then introduced into a silica
# (§5) capillary cylinder (10 mm in length; I.D. Ø = 180 μm, Polymicro Technologies, Phoenix, AZ, USA) partly
# (§6) packed with graphite-loaded (55% w/w) epoxy resin. By mixing 850 mg of graphite with 500 mg of Araldite-
# (§7) M and 200 mg of hardener, a preliminary disc electrode of carbon-composite was fabricated (Ø = 180 μm; area:
# (§8) 2.5 × 10−4 cm2) by filling the silica capillary tubing with the mixture. The silver wire assured a good electrical
# (§9) contact. After 24 h at 40 °C, the electrode surface was cleaned using a high-speed drill (Dremel® 300) equipped
# (§10) with an aluminum oxide grinding wheel. On top of the electrode surface a 1 µl of Tyrosinase or Laccase
# (§11) solution was deposited. After the complete evaporation of water at room temperature, the biosensor was
# (§12) quickly dipped in the polyurethane solution in order to entrap the enzyme on the electrode surface, and after
# (§13) the complete evaporation of the solvent biosensors were put to stabilize in PBS pH=6.0 overnight.
# (§14) The electrochemical measurements were performed at room temperature in a classical three-electrode
# (§15) electrochemical cell consisting of four biosensors as working electrodes, a reference electrode (Ag/AgCl in
# (§16) Constant potential amperometry (CPA) was used for in-vitro calibrations and for inhibition evaluation
# (§17) experiments by applying a constant potential of -50 mV against an Ag/AgCl reference electrode, by means of
# (§18) a four-channel potentiostat (eDAQ Quadstat, e- Corder 410, eDAQ Europe, Poland) and the software Chart (v
# (§19) 5.5, eDAQ Europe, Poland). Thus, once the stabilization of the baseline of biosensors was reached, increasing
# (§20) volumes of a stock solution of dopamine 1 M were added in order to obtain different concentrations ranging
# laccase = test: Laccase amperometric biosensor: IC50 and type of inhibition; type: biochemical; conditions: for Type of Inhibition Laccase: Lineweaver-Burk plot, biosensor exposed 30 min to twice the lowest inhibiting concentration; for VMAX, substrate + inhibitor, LAC: dopamine calibration 0-140 mM after inhibitor exposure, n=4 biosensors; for IC50: enzyme immobilized on biosensor, dopamine 50 µM, PBS pH 6.0
# Procedure: as §1, §2, §3, §4, §5, §6, §7, §8, §9, §10, §11, §12, §13, §14, §15, §16, §17, §18, §19, §20
# Tenebrio molitor = test: Insecticidal properties on mealworm larvae; type: in vivo; conditions: for pest or weed control at 6400 µg/mL: Tenebrio molitor, topical, 120 h, read-out: Mortality% (Mean ± SD)
# Procedure: Late instar larvae of Tenebrio molitor from a twenty-year-old insect culture at the Research Institute on Terrestrial Ecosystems (National Research Council, Sassari, Italy) were used in the experiments. The species was reared on bran flour, with the integration of fresh vegetables, at 25 °C, 65% relative humidity and 16:8 hours light/darkness.
# One hundred medium instar larvae were isolated in a petri dishes (diam. 50 mm). They were then immersed for three seconds in 2.5 mL of an acetone solution (concentration 6.4 mg/mL w:v) of one of the fourteen compounds listed in Table 3. In addition, a treatment with the commercial formulation Dimilin (WP, 25% a.i. diflubenzuron) (acetone solution, 25.6 mg/mL w:v) and a negative control (no treatment) were tested.
# After treatment, the larvae were subdivided into five 20-specimen groups and reared for five days in a small PVC box (150 L × 120 W × 50 H mm) with the same feed and conditions as standard rearing. Mortality was recorded daily.
# The statistical analysis was conducted with the R software (R Development Core Team 2016). Mortality data, expressed as a percentage, were arcsin(√x)-transformed to satisfy assumptions of normality. ANOVA was performed by the Duncan test for mean separation.
# PC12 cells [2] = test: Protection of PC12 cells against H2O2-induced oxidative stress (MTT); type: cell-based, rat; conditions: for change of cell viability versus H2O2 alone, in words: co-treatment with 100 μM H2O2, compounds 1 up to 20 μM; for H2O2 Damage Protection: concentration with significant increase in viability vs H2O2, co-treatment with 100 μM H2O2, n.p.: no protection
# Procedure: (§21) 1.4 Viability and oxidative stress assays
# (§22) PC12 cells, rat pheochromocytoma-derived cell line (ATCCCRL-1721) (passages 12–25) were maintained at 37
# (§23) °C humidified air containing 5% CO2/95% atmospheric air and cultured in a 60 mm plastic culture plates with
# (§24) Dulbecco’s modified Eagle’s medium supplemented with 10% horse serum, 5% fetal bovine serum and 1% of
# (§25) penicillin/streptomycin. PC12 cells were treated for 24 h with the different compounds at different
# concentrations ranging from 1 to 40 μM, to evaluate their eventual toxicity. Then, in order to assess the
# eventual compounds’ protection properties, PC12 cell treated with hydrogen peroxide (100μM) in association
# with increasing concentration of the above-mentioned molecules, from 1 up to 20 μM.
# (§26) For all treatments cell viability was measured by means of MTT assay, as explained in
# (§27) At the end of the exposure time of each experiment, the cell viability was assessed by means of MTT (3-(4,5-
# (§28) dimethyl-thiazol-2-yl)-2,5-diphenyltetrazoliumbromide) assay. For this purpose, 1 mg/mL of MTT was added
# (§29) to each sample and incubated for 4 h at 37 °C. Only viable cells are able to convert the soluble dye MTT into
# (§30) the insoluble formazan crystals. After the incubation the MTT supernatant solution was removed, the cells
# (§31) were washed in phosphate-buffered saline (PBS) and centrifuged while the pellet was dissolved in 2 mL of
# (§32) isopropanol. After centrifugation of the solution at 4,000 rpm for 5 min, the absorbance for each sample was
# (§33) assessed by means of a Bauty Diagnostic Microplate Reader at 578 nm. All experiments were performed in 24-
# (§34) well plates (1 × 10^5 cells/mL/well) and repeated in triplicate.
# PC12 cells [3] = test: Viability of PC12 cells (MTT assay); type: cell-based, rat; conditions: for Toxic Concentration: cell viability < 80%, screening from 1 to 40 μM, 24 h; for toxicity to cells in words: significant (p < 0.05) decrease in viability vs control, from 5 μM up to 40 μM
# Procedure: Initially, the inhibitor concentrations on PC12 cells, i.e., a rat pheochromocytoma-derived cell line, were screened to assess the possible cytotoxicity of the molecules under study [55].
# as §21, §22, §23, §24, §25
# concentrations ranging from 1 to 40 μM, to evaluate their eventual toxicity.
# as §26
# the following paragraph [17].
# as §27, §28, §29, §30, §31, §32, §33, §34
# tyrosinase [4] = target: T1, tyrosinase; conditions: cited from earlier work; for tyrosinase inhibitory activity compared with biphenol 1: spectrophotometric and electrochemical assays
# [5] = larvae immersed three seconds in 2.5 mL acetone solution 6.4 mg/mL, reared five days, DFB as Dimilin WP 25% a.i., 25.6 mg/mL
SMILES,"tyrosinase inhibition in words, tyrosine versus dopamine as substrate (mushroom tyrosinase)",Type of Inhibition Tyrosinase (tyrosinase [1]),"VMAX, substrate + inhibitor, TYR (tyrosinase [1]) [nA]",Type of Inhibition Laccase (laccase),"VMAX, substrate + inhibitor, LAC (laccase) [nA]",IC50 (laccase) [µM],pest or weed control at 6400 µg/mL (Tenebrio molitor; [5]) [%],Toxic Concentration (PC12 cells [3]),further results
"CC(C)=CCCC(C)(O)/C=C/c1cc(-c2ccc(O)c(/C=C/C(C)(O)CCC=C(C)C)c2)ccc1O (centres unmarked) [Compound 20, 3,3’-bis((E)-3-hydroxy-3,7-dimethylocta-1,6-dien-1-yl)-[1,1’-biphenyl]-4,4’-diol]",strongly inhibited the oxidation of dopamine compared to that of tyrosine; also recorded: selectivity towards the diphenolasic phase,competitively; also recorded: competitive,77.4±4.3,competitively; also recorded: competitive,151.6±12.1,0.118,~65,–,"insecticidal activity in words (Tenebrio molitor; mealworm larvae, compared with DFB): some insecticidal activity"
COc1cc(/C=C/C(=O)C[C@@H]2O[C@H](CO)[C@@H](O)[C@H](O)[C@H]2O)ccc1O [Compound 13],predominant inhibition of tyrosine oxidation,uncompetitive or mixed; also recorded: uncompetitive,37.3 ±4.0,competitive,114.4±9.5,–,–,>20 µM,"change of cell viability versus H2O2 alone, in words (PC12 cells [2]): significant decrease (p < 0.05 vs H2O2) at a concentration of 20 μM; H2O2 Damage Protection (PC12 cells [2]): n.p."
COc1cc(/C=C/C(=O)c2cc(OC)c(OC)c(-c3cc(C(=O)/C=C/c4ccc(O)c(OC)c4)cc(OC)c3OC)c2)ccc1O [Compound 14],predominant inhibition of tyrosine oxidation,mixed,48.8±4.67,mixed,110.9±2.4,–,0,>5 µM,toxicity to cells in words (PC12 cells [3]): toxic to cells
CCOC(=O)/C=C/c1cc(OC)c(O)c(-c2cc(/C=C/C(=O)OCC)cc(OC)c2O)c1 [Compound 17],strongly inhibited the oxidation of dopamine compared to that of tyrosine; also recorded: selectivity towards the diphenolasic phase,uncompetitive or mixed; also recorded: mixed,73.7±26,competitive,96.5±8.3,0.184,–,none,H2O2 Damage Protection (PC12 cells [2]): n.p.
COc1cc(C(=O)/C=C/c2ccc(OC)c(OC)c2)ccc1O [Compound 12],predominant inhibition of tyrosine oxidation,noncompetitive,63.0±1.962,competitive,49.5±6.1,1.04,0,>1 µM,toxicity to cells in words (PC12 cells [3]): toxic to cells
COc1cc(C(=O)/C=C/c2cc(OC)c(OC)c(-c3cc(/C=C/C(=O)c4ccc(O)c(OC)c4)cc(OC)c3OC)c2)ccc1O [Compound 15],predominant inhibition of tyrosine oxidation,competitively; also recorded: competitive,54.3±2.6,competitively; also recorded: competitive,93.8±2.9,0.209,0,>5 µM,toxicity to cells in words (PC12 cells [3]): toxic to cells
COc1ccc(O)c(C(=O)/C=C/c2cc(OC)c(OC)c(-c3cc(/C=C/C(=O)c4cc(OC)ccc4O)cc(OC)c3OC)c2)c1 [Compound 16],–,competitively; also recorded: competitive,22.2±0.6,competitively; also recorded: competitive,139.9±6.4,0.987,–,>5 µM,"% inhibition of tyrosinase (mushroom tyrosinase; comparable with both substrates, tyrosine 80 µM, inhibitor 20 µM, 24 min, dopamine 10-fold diluted solutions, 10 min): about 70%; toxicity to cells in words (PC12 cells [3]): toxic to cells"
CC(=O)CCc1ccc(O)c(O)c1 [Compound 9],strongly inhibited the oxidation of dopamine compared to that of tyrosine; also recorded: selectivity towards the diphenolasic phase,competitively; also recorded: competitive,183.2±11.1,competitively; also recorded: competitive,90.5±7.4,2.24,4 ± 6.51,>10 µM,"change of cell viability versus H2O2 alone, in words (PC12 cells [2]): significant decrease (p < 0.05 vs H2O2) at a concentration of 20 μM; H2O2 Damage Protection (PC12 cells [2]): n.p."
"Oc1ccc(-c2ccc(O)cc2)cc1 [Compound 1, 4,4′-dihydroxy-biphenyl, reference compound]",predominant inhibition of tyrosine oxidation,–,–,–,–,–,2 ± 2.74,–,type of tyrosinase inhibition (tyrosinase [4]): classical reversible competitive inhibitor
COc1cc(/C=C/C(=O)c2ccc(OC)c(OC)c2)ccc1O [Compound 11],predominant inhibition of tyrosine oxidation,competitive,33.0±1.1,mixed,91.0±9.2,0.062,4 ± 2.24,>10 µM,toxicity to cells in words (PC12 cells [3]): toxic to cells
Oc1ccc(-c2ccc(O)c(O)c2)cc1O [Compound 2],–,–,–,–,–,–,4 ± 5.48,–,tyrosinase inhibitory activity compared with biphenol 1 (tyrosinase [4]): higher tyrosinase inhibitory activity than that of biphenol 1
"OC[C@H]1O[C@@H](Oc2ccc(-c3ccc(O)c(Br)c3)cc2Br)[C@H](O)[C@@H](O)[C@@H]1O [Compound 19, (2S,3R,4S,5S,6R)-2-((3,3’-dibromo-4’-hydroxy-[1,1’-biphenyl]-4-yl)oxy)-6-(hydroxymethyl)tetrahydro-2H-pyran-3,4,5-triol]",predominant inhibition of tyrosine oxidation,noncompetitive,123.5±9.8,competitive,111.4±8.9,0.13,–,none,"melting point: 176 to 178 °C; change of cell viability versus H2O2 alone, in words (PC12 cells [2]): significant decrease (p < 0.05 vs H2O2) in cells viability at all concentrations tested; H2O2 Damage Protection (PC12 cells [2]): n.p."
Oc1ccccc1-c1ccccc1O [Compound 4],–,–,–,–,–,–,–,–,pest or weed control at 6400 µg/mL (Tenebrio molitor): 3 ± 4.47%
C=CCc1cc(-c2ccc(O)c(CC=C)c2)ccc1O [Compound 3],–,–,–,–,–,–,3 ± 2.74,–,tyrosinase inhibitory activity compared with biphenol 1 (tyrosinase [4]): higher tyrosinase inhibitory activity than that of biphenol 1
Oc1cccc(O)c1-c1c(O)cccc1O [Compound 5],–,–,–,–,–,–,16 ± 9.62,–,tyrosinase inhibitory activity compared with biphenol 1 (tyrosinase [4]): higher tyrosinase inhibitory activity than that of biphenol 1
COc1cc(O)cc(-c2cc(O)cc(OC)c2OC)c1OC [Compound 6],–,–,–,–,–,–,1 ± 2.24,–,tyrosinase inhibitory activity compared with biphenol 1 (tyrosinase [4]): higher tyrosinase inhibitory activity than that of biphenol 1
COc1cc(C=CC(C)=O)ccc1O [Compound 8],strongly inhibited the oxidation of dopamine compared to that of tyrosine; also recorded: selectivity towards the diphenolasic phase,–,–,–,78.7±8.8,0.218,10 ± 7.07,40 µM,"change of cell viability versus H2O2 alone, in words (PC12 cells [2]): significant decrease (p < 0.05 vs H2O2) in cells viability at all concentrations tested; H2O2 Damage Protection (PC12 cells [2]): n.p."
"O=C(NC(=O)c1c(F)cccc1F)Nc1ccc(Cl)cc1 [DFB, N-[(4-chlorophenyl)carbamoyl]-2,6-difluorobenzamide, reference compound]",–,–,–,–,–,–,–,–,pest or weed control at 6400 µg/mL (Tenebrio molitor): 97 ± 4.47%
